{"source": "patent US20180072997A1", "about": "“INHIBITORS OF HUMAN IMMUNODEFICIENCY VIRUS REPLICATION” (ViiV HEATHCARE UK (NO.5) LIMITED, priority 2015, published 2018)", "note": "pEC50: −log10 of the molar value.", "data": [{"test_system": "recombinant NL4-3 virus (Renilla luciferase in nef) in MT-2 cells", "experiment": "whole plant or invertebrate", "type": "cell-based, HIV", "conditions": "Renilla, NL43, MT-2 cells infected for 4-5 days with recombinant NL4-3 Renilla luciferase virus; luciferase activity", "method_in_brief": "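MT-2 cells infected for 4-5 days with NL4-3 reporter virus (Renilla luciferase replacing part of nef, produced by transfection of 293T cells) in the presence of serial compound dilutions. Antiviral activity quantified by luciferase activity read with a live-cell substrate.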", "values": [{"compound": "COc1ccc(N(C)C(=O)[C@H](Cc2ccccc2)NC(=O)NS(=O)(=O)N[C@H](Cc2ccccc2)C(=O)N(C)c2ccc(OC)cc2)cc1", "note": "[Example 11]", "pEC50": 6.33}, {"compound": "COc1ccc(N(C)C(=O)[C@H](Cc2ccccc2)NC(=O)CCSCCC(=O)N[C@@H](Cc2ccccc2)C(=O)N(C)c2ccc(OC)cc2)cc1", "note": "[Example 41]", "pEC50": 7.00}, {"compound": "CN(C(=O)[C@H](Cc1cc(F)cc(F)c1)NC(=O)NS(=O)(=O)N[C@@H](Cc1cc(F)cc(F)c1)C(=O)N(C)c1cccnc1)c1cccnc1", "note": "[Example 236]", "pEC50": 5.38}, {"compound": "C=CCN(C(=O)[C@H](Cc1cc(F)cc(F)c1)NC(=O)c1nccnc1C(=O)N[C@@H](Cc1cc(F)cc(F)c1)C(=O)N(CC=C)c1ccc(OC)cc1)c1ccc(OC)cc1", "note": "[Example 212]", "pEC50": 5.43}, {"compound": "C=CCN(C(=O)[C@H](Cc1cc(F)cc(F)c1)NC(=O)c1ccccc1C(=O)N[C@@H](Cc1cc(F)cc(F)c1)C(=O)N(CC=C)c1ccc(OC)cc1)c1ccc(OC)cc1", "note": "[Example 191]", "pEC50": 5.75}, {"compound": "COc1ccc(N(C)C(=O)[C@H](Cc2cc(F)cc(F)c2)NC(=O)c2ccc(F)c(C(=O)N[C@@H](Cc3cc(F)cc(F)c3)C(=O)N(C)c3ccc(OC)nc3)c2)cn1", "note": "[Example 196]", "pEC50": 6.43}, {"compound": "CN(C(=O)[C@H](Cc1cc(F)cc(F)c1)NC(=O)c1cncc(C(=O)N[C@@H](Cc2cc(F)cc(F)c2)C(=O)N(C)c2ccc3scnc3c2)c1)c1ccc2scnc2c1", "note": "[Example 129]", "pEC50": 8.00}, {"compound": "COc1ccc(N(C)C(=O)[C@H](Cc2ccccc2)NC(=O)NS(=O)(=O)N[C@@H](Cc2ccccc2)C(=O)N(C)c2ccc3c(c2)OCO3)cc1", "note": "[Example 14]", "pEC50": 7.10}, {"compound": "COc1ccc(N(C)C(=O)[C@H](Cc2cc(F)cc(F)c2)NC(=O)Cn2c(=O)n(CC(=O)N[C@@H](Cc3cc(F)cc(F)c3)C(=O)N(C)c3ccc(OC)cc3)c3c(Cl)cccc32)cc1", "note": "[Example 74]", "pEC50": 7.52}, {"compound": "CN(C(=O)[C@H](Cc1cc(F)cc(F)c1)NC(=O)NS(=O)(=O)N[C@@H](Cc1cc(F)cc(F)c1)C(=O)N(C)c1ccc(OC(F)(F)F)cc1)c1ccc(OC(F)(F)F)cc1", "note": "[Example 189]", "pEC50": 8.00}, {"compound": "CN(C(=O)[C@H](Cc1cc(F)cc(F)c1)NC(=O)CN1c2ccccc2N(CC(=O)N[C@@H](Cc2cc(F)cc(F)c2)C(=O)N(C)c2ccc3snnc3c2)S1(=O)=O)c1ccc2snnc2c1", "note": "[Example 178]", "pEC50": 7.70}, {"compound": "C=CCCN(C(=O)[C@H](Cc1cc(F)cc(F)c1)NC(=O)NS(=O)(=O)N[C@@H](Cc1cc(F)cc(F)c1)C(=O)N(CCC=C)c1ccc(OC)cc1)c1ccc(OC)cc1", "note": "[Example 121]", "pEC50": 6.14}, {"compound": "CN(C(=O)[C@H](Cc1cc(F)cc(F)c1)NC(=O)NS(=O)(=O)N[C@@H](Cc1cc(F)cc(F)c1)C(=O)N(C)c1ccc2scnc2c1)c1ccc2scnc2c1", "note": "[Example 18]", "pEC50": 7.52}, {"compound": "CCN(C(=O)[C@H](Cc1cc(F)cc(F)c1)NC(=O)NS(=O)(=O)N[C@@H](Cc1cc(F)cc(F)c1)C(=O)N(CC)c1ccc2scnc2c1)c1ccc2scnc2c1", "note": "[Example 152]", "pEC50": 7.22}, {"compound": "COc1ccc(N(C)C(=O)[C@H](Cc2ccccc2)NC(=O)c2cc(C(=O)N[C@@H](Cc3ccccc3)C(=O)N(C)c3ccc(OC)cc3)n(C)n2)cc1", "note": "[Example 115]", "pEC50": 5.67}, {"compound": "COc1ccc(N(C)C(=O)[C@H](Cc2ccccc2)Nc2nc(N)nc(N[C@@H](Cc3ccccc3)C(=O)N(C)c3ccc(OC)cc3)n2)cc1", "note": "[Example 124]", "pEC50": 5.42}, {"compound": "COc1ccc(-n2ccnc2C(Cc2ccccc2)NC(=O)NS(=O)(=O)N[C@@H](Cc2ccccc2)c2nccn2-c2ccc(OC)cc2)cc1", "note": "(stereo partly drawn) [Example 159]", "pEC50": 5.43}, {"compound": "COc1ccc(N(C)C(=O)[C@H](Cc2ccccc2)NC(=O)C[C@H](O)C(=O)N[C@@H](Cc2ccccc2)C(=O)N(C)c2ccc(OC)cc2)cc1", "note": "[Example 32]", "pEC50": 5.48}, {"compound": "CN(C(=O)[C@H](Cc1ccccc1)NC(=O)CS(=O)(=O)N[C@@H](Cc1ccccc1)C(=O)N(C)c1ccc2scnc2c1)c1ccc2scnc2c1", "note": "[Example 65]", "pEC50": 6.49}, {"compound": "COc1ccc(N(C)C(=O)[C@H](Cc2ccccc2)NC(=O)Cn2c(=O)n(CC(=O)N[C@@H](Cc3ccccc3)C(=O)N(C)c3ccc(OC)cc3)c3ccccc32)cc1", "note": "[Example 37]", "pEC50": 7.15}, {"compound": "Cc1cc(N(C)C(=O)[C@H](Cc2cc(F)cc(F)c2)NC(=O)NS(=O)(=O)N[C@@H](Cc2cc(F)cc(F)c2)C(=O)N(C)c2cnc(C)c(C)c2)cnc1C", "note": "[Example 235]", "pEC50": 5.15}]}, {"test_system": "not listed separately", "experiment": "Compound cytotoxicity, XTT-based colorimetric assay", "type": "cell-based", "conditions": "human, uninfected MT2 cells, day 4, XTT", "method_in_brief": "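Run under the antiviral-assay protocol but without virus. Viability was read on day 4 and CC50 values were derived from the readout.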", "units": {"CC50 at 4 days": "µM"}, "values": [{"compound": "COc1ccc(N(C)C(=O)[C@H](Cc2ccccc2)NC(=O)NS(=O)(=O)N[C@H](Cc2ccccc2)C(=O)N(C)c2ccc(OC)cc2)cc1", "note": "[Example 11]", "CC50 at 4 days": "≥ 33.3"}, {"compound": "COc1ccc(N(C)C(=O)[C@H](Cc2ccccc2)NC(=O)CCSCCC(=O)N[C@@H](Cc2ccccc2)C(=O)N(C)c2ccc(OC)cc2)cc1", "note": "[Example 41]", "CC50 at 4 days": 23}, {"compound": "CN(C(=O)[C@H](Cc1cc(F)cc(F)c1)NC(=O)NS(=O)(=O)N[C@@H](Cc1cc(F)cc(F)c1)C(=O)N(C)c1cccnc1)c1cccnc1", "note": "[Example 236]", "CC50 at 4 days": "≥ 100"}, {"compound": "C=CCN(C(=O)[C@H](Cc1cc(F)cc(F)c1)NC(=O)c1nccnc1C(=O)N[C@@H](Cc1cc(F)cc(F)c1)C(=O)N(CC=C)c1ccc(OC)cc1)c1ccc(OC)cc1", "note": "[Example 212]", "CC50 at 4 days": "≥ 100"}, {"compound": "C=CCN(C(=O)[C@H](Cc1cc(F)cc(F)c1)NC(=O)c1ccccc1C(=O)N[C@@H](Cc1cc(F)cc(F)c1)C(=O)N(CC=C)c1ccc(OC)cc1)c1ccc(OC)cc1", "note": "[Example 191]", "CC50 at 4 days": "≥ 100"}, {"compound": "COc1ccc(N(C)C(=O)[C@H](Cc2cc(F)cc(F)c2)NC(=O)c2ccc(F)c(C(=O)N[C@@H](Cc3cc(F)cc(F)c3)C(=O)N(C)c3ccc(OC)nc3)c2)cn1", "note": "[Example 196]", "CC50 at 4 days": "≥ 100"}, {"compound": "CN(C(=O)[C@H](Cc1cc(F)cc(F)c1)NC(=O)c1cncc(C(=O)N[C@@H](Cc2cc(F)cc(F)c2)C(=O)N(C)c2ccc3scnc3c2)c1)c1ccc2scnc2c1", "note": "[Example 129]", "CC50 at 4 days": 5.3}, {"compound": "COc1ccc(N(C)C(=O)[C@H](Cc2ccccc2)NC(=O)NS(=O)(=O)N[C@@H](Cc2ccccc2)C(=O)N(C)c2ccc3c(c2)OCO3)cc1", "note": "[Example 14]", "CC50 at 4 days": "≥ 50"}, {"compound": "COc1ccc(N(C)C(=O)[C@H](Cc2cc(F)cc(F)c2)NC(=O)Cn2c(=O)n(CC(=O)N[C@@H](Cc3cc(F)cc(F)c3)C(=O)N(C)c3ccc(OC)cc3)c3c(Cl)cccc32)cc1", "note": "[Example 74]", "CC50 at 4 days": 11.3}, {"compound": "CN(C(=O)[C@H](Cc1cc(F)cc(F)c1)NC(=O)NS(=O)(=O)N[C@@H](Cc1cc(F)cc(F)c1)C(=O)N(C)c1ccc(OC(F)(F)F)cc1)c1ccc(OC(F)(F)F)cc1", "note": "[Example 189]", "CC50 at 4 days": 8.2}, {"compound": "CN(C(=O)[C@H](Cc1cc(F)cc(F)c1)NC(=O)CN1c2ccccc2N(CC(=O)N[C@@H](Cc2cc(F)cc(F)c2)C(=O)N(C)c2ccc3snnc3c2)S1(=O)=O)c1ccc2snnc2c1", "note": "[Example 178]", "CC50 at 4 days": "≥ 100"}, {"compound": "C=CCCN(C(=O)[C@H](Cc1cc(F)cc(F)c1)NC(=O)NS(=O)(=O)N[C@@H](Cc1cc(F)cc(F)c1)C(=O)N(CCC=C)c1ccc(OC)cc1)c1ccc(OC)cc1", "note": "[Example 121]", "CC50 at 4 days": 18.8}, {"compound": "CN(C(=O)[C@H](Cc1cc(F)cc(F)c1)NC(=O)NS(=O)(=O)N[C@@H](Cc1cc(F)cc(F)c1)C(=O)N(C)c1ccc2scnc2c1)c1ccc2scnc2c1", "note": "[Example 18]", "CC50 at 4 days": 85.3}, {"compound": "CCN(C(=O)[C@H](Cc1cc(F)cc(F)c1)NC(=O)NS(=O)(=O)N[C@@H](Cc1cc(F)cc(F)c1)C(=O)N(CC)c1ccc2scnc2c1)c1ccc2scnc2c1", "note": "[Example 152]", "CC50 at 4 days": 99.3}, {"compound": "COc1ccc(N(C)C(=O)[C@H](Cc2ccccc2)NC(=O)c2cc(C(=O)N[C@@H](Cc3ccccc3)C(=O)N(C)c3ccc(OC)cc3)n(C)n2)cc1", "note": "[Example 115]", "CC50 at 4 days": "≥ 100"}, {"compound": "COc1ccc(N(C)C(=O)[C@H](Cc2ccccc2)Nc2nc(N)nc(N[C@@H](Cc3ccccc3)C(=O)N(C)c3ccc(OC)cc3)n2)cc1", "note": "[Example 124]", "CC50 at 4 days": 31}, {"compound": "COc1ccc(-n2ccnc2C(Cc2ccccc2)NC(=O)NS(=O)(=O)N[C@@H](Cc2ccccc2)c2nccn2-c2ccc(OC)cc2)cc1", "note": "(stereo partly drawn) [Example 159]", "CC50 at 4 days": 86.4}, {"compound": "COc1ccc(N(C)C(=O)[C@H](Cc2ccccc2)NC(=O)C[C@H](O)C(=O)N[C@@H](Cc2ccccc2)C(=O)N(C)c2ccc(OC)cc2)cc1", "note": "[Example 32]", "CC50 at 4 days": 34.6}, {"compound": "CN(C(=O)[C@H](Cc1ccccc1)NC(=O)CS(=O)(=O)N[C@@H](Cc1ccccc1)C(=O)N(C)c1ccc2scnc2c1)c1ccc2scnc2c1", "note": "[Example 65]", "CC50 at 4 days": 34.6}, {"compound": "COc1ccc(N(C)C(=O)[C@H](Cc2ccccc2)NC(=O)Cn2c(=O)n(CC(=O)N[C@@H](Cc3ccccc3)C(=O)N(C)c3ccc(OC)cc3)c3ccccc32)cc1", "note": "[Example 37]", "CC50 at 4 days": 19.9}, {"compound": "Cc1cc(N(C)C(=O)[C@H](Cc2cc(F)cc(F)c2)NC(=O)NS(=O)(=O)N[C@@H](Cc2cc(F)cc(F)c2)C(=O)N(C)c2cnc(C)c(C)c2)cnc1C", "note": "[Example 235]", "CC50 at 4 days": "≥ 100"}]}]}
